These results are taken from patent US12180307B2, “Interleukin-13 binding cyclic oligopeptides and methods of use thereof” (B.A.I. LABORATORIES, LLC, priority 2022, dated 2024).

One data set is described as follows: FIG. 9D. The protocol: Table printed on a drawing sheet, FIG. 9D
The patent's description of the figure: FIG. 9A provides the MS spectrum for Compound 8. FIG. 9B provides the HPLC chromatogram for Compound 8. FIG. 9C provides SPR assay curves showing the binding affinity of Compound 8 for IL-13, the x-axis represents time of reaction and y-axis represents altitude of response (Response Units). FIG. 9D illustrates skin permeation rate of Compound 8 for up to 24 hours. FIG. 9E illustrates average permeability coefficient (Kp) of Compound 8 for 1, 2, 4, 8, 12 and 24 hours.
First reader's note: The substance name is taken from the legend of the plot printed above the table in the same figure; the values are three replicate permeation rates, their average and their range.

Data set [1] is described as follows: Skin permeability, Franz Cell diffusion cell with artificial skin, Transdermal Diffusion Tester, BCA assay. It is filed as in vitro ADME. As to conditions: for Average Permeation Rate After 1 Hour (%) / Average Permeation Rate After 24 Hours (%): 32° C., 1.0 mg/mL in PBS; for Average Permeation Rate After 1 Hour (%) / Papp at 1 h, 1 mg/mL: after 1 hour; for Papp at 1 h, 1 mg/mL: read-out: Average Permeability Coefficient (Kp) After 1 hour (converted). As for the experimental part: As used herein, the term “skin permeation rate” of a cyclic oligopeptide is measured using artificial skin (Start M, Merck), and refers to the percentage of the cyclic oligopeptide that penetrate the artificial skin after certain amount of time. For example, if 60% of the total amount of a cyclic oligopeptide of this disclosure has penetrated the artificial skin after 24 hours, then the skin permeation rate of the cyclic oligopeptide is 60% after 24 hours.
As used herein, the term “skin permeability coefficient (Kp)” refers to the rate at which the cyclic oligopeptide penetrates the skin, as measured using artificial skin (Start M, Merck). In some embodiments, permeability coefficient (Kp)(cm/hr) is calculated with the following equation:
[formula] wherein Q(mg) refers to the total amount of cyclic oligopeptide that pass through the artificial skin within a certain amount of time; A(cm^2) refers to the internal cross-section area of the artificial skin in a diffusion cell; T(hr) refers to the total amount of time of cyclic oligopeptide permeation; and ΔC(mg/mL) refers to the concentration difference of the cyclic oligopeptide between the two sides of the artificial skin. In some embodiments, the diffusion cell is a Franz Cell.
Skin permeability of the cyclic oligopeptides generated in Example 1 was measured using Transdermal Diffusion Tester (TK-12D, Shanghai Kai Kai Industrial Co Ltd) and artificial skin (Start M, Merck). Three parallel experimental groups were set up for each sample. The skin permeability of cyclic oligopeptides was evaluated by the following steps: • 1) 2.0 mg cyclic oligopeptide was weighed and dissolved in 100 μL DMSO. Three parallel experimental groups were set up for each cyclic oligopeptide. The cyclic oligopeptide-containing solution was then slowly added dropwise to 1900 μL 1×PBS solution and mixed evenly to prepare a PBS solution with a final concentration of 1.0 mg/mL cyclic polypeptide. • 2) A magnetron was inserted into a Franz Cell diffusion cell, and an artificial skin was sandwiched in the middle of the diffusion cell with the smooth side of the artificial skin facing up. The diffusion cell was then fixed with clamps after assembly. • 3) 7.75 ml 1×PBS solution were then added to the diffusion cell without generating bubbles in the diffusion cell. The sampling port of the diffusion cell was then sealed with parafilm to reduce evaporation. • 4) The temperature of a Transdermal Diffusion Tester was then set to 32° C., and the magneton speed was set to 180 r/min. • 5) The assembled diffusion cell was then put into the Transdermal Diffusion Tester and preheated for 5-10 mins. • 6) 400 μL of 1.0 mg/mL cyclic oligopeptide solution prepared in step 1) was then added to the upper chamber of the diffusion cell, making it evenly dispersed on the surface of the artificial skin without air bubbles. The top port of the diffusion cell was then covered with parafilm to reduce evaporation. • 7) Starting from the time of adding the cyclic oligopeptide solution, samples of about 0.5 mL of the receiving solution were taken at six time points, 1 h, 2 h, 4 h, 8 h, 12 h and 24 h, using a plastic dropper to take out the samples from the sampling port of the diffusion cell. 0.5 mL of 1×PBS solution was added into the diffusion cell to restore the initial volume of the receiving solution. When sampling, the diffusion cell was tilted appropriately to avoid the generation of bubbles. The samples were then numbered and store at −20° C. • 8) A BCA Assay (Micro BCA Protein Assay Kit, Thermo Scientific) was conducted to measure the concentration of cyclic oligopeptide in samples obtained in step 7) (Actual Concentration of the cyclic oligopeptide at the particular time point). Three parallel groups were used. The weight of cyclic oligopeptide in each sample obtained in step 7) equals to Actual Concentration×0.5 mL. • 9) Permeation rate of each cyclic oligopeptide at each time point was calculated according to the following equation: […]

A further data set concerns the target Human IL-13 (Homo sapiens, UniProt P35225). Description: Surface plasmon resonance (SPR) binding assay, BIAcore 8K plus, immobilized Fc-tagged IL-13. The following applies: 25° C., human IL-13 with Fc-tag immobilized on CM5 chip, read-out: Binding Affinity (KD) for IL-13. As for the experimental part: A SPR assay was conducted to determine the binding affinity of the cyclic oligopeptides generated in Example 1 for IL-13 using a BIAcore 8K plus instrument (GE Healthcare). Human IL-13 with an Fc-tag was immobilized onto the surfaces of Series S Sensor CM5 (GE Healthcare) chips in the range of 5000 resonance units (RU). The binding kinetics were performed at 25° C. with a flow rate of 30 μL/min. The cyclic oligopeptides were analyzed in running buffer comprising 20 mM PBS, 2.7 mM KCl, […], 0.0500 Surfactant P20, pH 7.4, 1% DMSO, starting at 100 μM with gradient of ten two-fold dilutions using solvent correction mode.
FIGS. 2C, 3C, 4C, 5C, 6C, 7C, 8C, 9C, 10C, 11C, and 12C provide SPR response curves for the cyclic oligopeptides generated in Example 1, wherein the x-axis represents time of reaction and y-axis represents altitude of response (Response Units).
A general note: SPR reads the build-up and loss of mass on a sensor chip optically.

A further data set is described as follows: FIG. 12D. As for the experimental part: Table printed on a drawing sheet, FIG. 12D
The patent's description of the figure: FIG. 12A provides the MS spectrum for Compound 11. FIG. 12B provides the HPLC chromatogram for Compound 11. FIG. 12C provides SPR assay curves showing the binding affinity of Compound 11 for IL-13, the x-axis represents time of reaction and y-axis represents altitude of response (Response Units). FIG. 12D illustrates skin permeation rate of Compound 11 for up to 24 hours. FIG. 12E illustrates average permeability coefficient (Kp) of Compound 11 for 1, 2, 4, 8, 12 and 24 hours.
First reader's note: The substance name is taken from the legend of the plot printed above the table on the same sheet; the last column is the range (max minus min) of the three replicates.

The nature of a further data set: FIG. 10D. As for the experimental part: Table printed on a drawing sheet, FIG. 10D
The patent's description of the figure: FIG. 10A provides the MS spectrum for Compound 9. FIG. 10B provides the HPLC chromatogram for Compound 9. FIG. 10C provides SPR assay curves showing the binding affinity of Compound 9 for IL-13, the x-axis represents time of reaction and y-axis represents altitude of response (Response Units). FIG. 10D illustrates skin permeation rate of Compound 9 for up to 24 hours. FIG. 10E illustrates average permeability coefficient (Kp) of Compound 9 for 1, 2, 4, 8, 12 and 24 hours.
First reader's note: The substance name is taken from the legend of the plot printed above the table; three replicate permeation values, their average and their range per time point.

Another data set is described as follows: FIG. 8D. As for the experimental part:
Table printed on a drawing sheet, FIG. 8D
The patent's description of the figure: FIG. 8A provides the MS spectrum for Compound 7. FIG. 8B provides the HPLC chromatogram for Compound 7. FIG. 8C provides SPR assay curves showing the binding affinity of Compound 7 for IL-13, the x-axis represents time of reaction and y-axis represents altitude of response (Response Units). FIG. 8D illustrates skin permeation rate of Compound 7 for up to 24 hours. FIG. 8E illustrates average permeability coefficient (Kp) of Compound 7 for 1, 2, 4, 8, 12 and 24 hours.
First reader's note: The substance name Compound 7 comes from the legend of the plot printed above the table; the values are skin permeation over time in three replicates with their average and range.

The next data set in a line: FIG. 11D. As for the experimental part:
Table printed on a drawing sheet, FIG. 11D
The patent's description of the figure: FIG. 11A provides the MS spectrum for Compound 10. FIG. 11B provides the HPLC chromatogram for Compound 10. FIG. 11C provides SPR assay curves showing the binding affinity of Compound 10 for IL-13, the x-axis represents time of reaction and y-axis represents altitude of response (Response Units). FIG. 11D illustrates skin permeation rate of Compound 10 for up to 24 hours. FIG. 11E illustrates average permeability coefficient (Kp) of Compound 10 for 1, 2, 4, 8, 12 and 24 hours.
First reader's note: The substance name comes from the legend of the plot above the table; columns 2-4 are three replicate permeation measurements, followed by their average and range.

pKd: −log10 of the molar value. Values joined by “and” are separate entries in the source; they are usually repeats but may differ in a detail not shown here. Equal entries are not always repeated. Square brackets hold non-standard residues; d marks the D form. Peptide text beside a SMILES is read from it. Where only a bound is given, the exact number is not on record here.

Chain of Human IL-13 (P35225 25-146): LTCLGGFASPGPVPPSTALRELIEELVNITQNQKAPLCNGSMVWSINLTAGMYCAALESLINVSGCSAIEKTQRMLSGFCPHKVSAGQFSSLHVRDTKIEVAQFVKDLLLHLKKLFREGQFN

`CSCC[C@@H]1NC(=O)[C@H](Cc2c[nH]c3ccccc23)NC(=O)[C@@H]2CCCN2C(=O)[C@H](CCC(=O)O)NC(=O)[C@H](CCCNC(=N)N)NC(=O)[C@@H](CC(C)C)NC(=O)[C@@H]2CCCN2C1=O` [Compound 8, D-Leu Arg Glu Pro Trp Met Pro] (cyclo(EPWMP[dL]R)): in the data set “FIG. 9D”, the “Permeation Avg. (%)” value was 17.57% and 23.24% and 27.76% and 32.33%. Moreover, in data set [1], the “Average Permeation Rate After 1 Hour (%)” value is 12.44% and the Papp at 1 h, 1 mg/mL was 7.39 ×10⁻⁶ cm/s. The “Average Permeation Rate After 24 Hours (%)” value in data set [1] (after 24 hours) is listed as 35.20%. In data set [1] (after 24 hours, read-out: Average Permeability Coefficient (Kp) After 24 hours), the Papp at 24 h, 1 mg/mL is above 0.0278 ×10⁻⁶ cm/s.

Turning to `CC(C)C[C@@H]1NC(=O)[C@@H](C(C)C)NC(=O)[C@@H](Cc2c[nH]c3ccccc23)NC(=O)[C@@H](CC(C)C)NC(=O)[C@@H]2CCCN2C(=O)[C@H](C(C)C)NC(=O)[C@@H]2CCCN2C(=O)[C@H](CCCNC(=N)N)NC1=O` [Compound 11, Val Pro D-Leu D-Trp D-Val Leu Arg Pro] (cyclo(LRPVP[dL][dW][dV])), the pKd on Human IL-13 was 3.21. Further, the “Permeation Avg. (%)” value in “FIG. 12D” is 15.61% and 19.18% and 21.74% and 23.90%. In data set [1], the “Average Permeation Rate After 1 Hour (%)” value was found to be 11.77% and the Papp at 1 h, 1 mg/mL was 7.22 ×10⁻⁶ cm/s.

Regarding `CC(C)C[C@@H]1NC(=O)[C@@H](CCCNC(=N)N)NC(=O)[C@@H]2CCCN2C(=O)[C@H](CCC(=O)O)NC(=O)[C@@H]([C@H](C)O)NC(=O)[C@H](Cc2c[nH]c3ccccc23)NC(=O)[C@@H](Cc2c[nH]c3ccccc23)NC1=O` [Compound 9, D-Arg Leu D-Trp Trp D-Thr Glu Pro] (cyclo(EP[dR]L[dW]W[dT])), the pKd on Human IL-13 was 3.47. Further, in “FIG. 10D”, the “Permeation Avg. (%)” value is 31.10% and 41.93% and 48.23% and 55.09%. Besides, the Papp at 1 h, 1 mg/mL in data set [1] is 14 ×10⁻⁶ cm/s.

As to `CC(C)C[C@H]1NC(=O)[C@@H]2CCCN2C(=O)[C@@H](Cc2ccccc2)NC(=O)[C@H](CCCNC(=N)N)NC(=O)[C@H]([C@@H](C)O)NC(=O)[C@H]2CCCN2C1=O` [Compound 7, Thr Arg D-Phe Pro D-Leu D-Pro] (cyclo(P[dL][dP]TR[dF])), the pKd on Human IL-13 was 4.07. In addition, in the data set “FIG. 8D”, the “Permeation Avg. (%)” value was 28.31% and 31.36% and 33.66% and 36.74%. Besides, the “Average Permeation Rate After 24 Hours (%)” value in data set [1] (after 24 hours) turned out to be 38.84%. Besides, the Papp at 1 h, 1 mg/mL in data set [1] was 15.2 ×10⁻⁶ cm/s.

As to `N=C(N)NCCC[C@@H]1NC(=O)[C@H]2CCCN2C(=O)[C@@H](Cc2c[nH]c3ccccc23)NC(=O)[C@H]2CCCN2C(=O)[C@H](CS)NC(=O)[C@H](Cc2ccc(O)cc2)NC(=O)[C@H](CC(=O)O)NC1=O` [Compound 10, Arg Asp Tyr Cys D-Pro D-Trp D-Pro] (cyclo(C[dP][dW][dP]RDY)), the negative-log Kd (pKd) on Human IL-13 was 3.43. The “Permeation Avg. (%)” value in “FIG. 11D” was 29.18% and 39.99% and 47.96% and 56.44%. For the same compound, in data set [1], the “Average Permeation Rate After 1 Hour (%)” value is on record as 18.96% and the Papp at 1 h, 1 mg/mL was 11.7 ×10⁻⁶ cm/s.

A word on the pKd: it is the Kd on a negative log10 scale, so that one unit is a factor of ten.
